biological target: T1, recombinant cGAS (aa147-522) (Homo sapiens, UniProt Q8N884); assay: In vitro assay for inhibition of cGAS activity (ATP consumption, Kinase Glo); type: biochemical; conditions: 37° C. 20 minutes, read-out: Activity (Inhibition of cGAS enzyme activity in vitro, IC50)
T1 construct: recombinant cGAS (aa147-522); His6-SUMO (N, cleaved yes); made in house; host or cells: E. coli BL21/pLys
Protocol: cDNA encoding full-length or amino acids 147-520 of human cGAS is inserted into a modified pET28a vector containing an in-frame His6-SUMO tag. The E. coli strain BL21/pLys harboring the plasmid is induced with 0.5 mM IPTG at 18° C. overnight. His6-SUMO tag was removed by a SUMO proease following purification of the HiS-SUMO-cGAS as described previously (Sun et al, 2013, Science 339, 786).
A40 μL mixture containing 1.5 ng/μL of recombinant cGAS (aa147-522) and serial dilutions of a test compound or DMSO was added to a 96-well plate and incubated at 37° C. for 20 minutes. At the end of reaction, 20 μL of Kinase Glo (Promega) was added and chemiluminescence measured with a luminometer. Inhibitory effect of a compound is evaluated by plotting percentage of ATP consumption against logarithm of compound concentrations. IC50 value was calculated using Graphpad (Sigma).

T1 sequence (Q8N884 147-522): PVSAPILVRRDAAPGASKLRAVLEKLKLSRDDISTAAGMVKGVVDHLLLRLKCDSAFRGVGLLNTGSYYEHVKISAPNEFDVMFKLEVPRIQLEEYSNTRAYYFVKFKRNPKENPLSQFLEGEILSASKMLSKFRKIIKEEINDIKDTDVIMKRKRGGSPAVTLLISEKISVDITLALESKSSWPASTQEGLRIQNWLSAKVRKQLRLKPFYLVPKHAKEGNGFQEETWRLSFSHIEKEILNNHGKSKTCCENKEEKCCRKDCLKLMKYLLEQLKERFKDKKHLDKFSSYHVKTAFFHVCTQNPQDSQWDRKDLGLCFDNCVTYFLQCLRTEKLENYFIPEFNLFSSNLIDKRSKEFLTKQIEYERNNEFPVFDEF

Row | IC50 | Structure (SMILES)
1 | 500 to 10000 nM | CN1C(=O)S/C(=C\c2cc(OCc3cnc([S+](C)[O-])nc3Cl)c(O)cc2Br)C1=O (stereo not shown) [Ex214]
2 | 500 to 10000 nM | CN1C(=O)S/C(=C\c2cc(OCc3cnc(Nc4cccnc4)nc3)c(O)cc2Br)C1=O [Ex159]
3 | ≤ 500 nM | O=C1/C(=C/c2cc(OCc3ccncc3)c(O)cc2Br)Sc2ncccc21 [Ex72]
4 | ≤ 500 nM | O=C1/C(=C/c2ccc(O)cc2Br)Sc2ncccc21 [Ex71]
5 | ≤ 500 nM | [2H]C(C)(Oc1cc(/C=C2\SC(=O)N(C)C2=O)c(Br)c(F)c1O)c1cnc(N)nc1 (stereo not shown) [ExB29]
6 | 500 to 10000 nM | CN1C(=O)S/C(=C\c2cc(OCc3ccn(-c4ccccc4)c(=O)c3)c(O)cc2Br)C1=O [Ex136]
7 | 500 to 10000 nM | CN1C(=O)S/C(=C\c2cc(OCc3ccnc(N)n3)c(O)cc2Br)C1=O [Ex138]
8 | ≥ 10000 nM | CN1C(=O)S/C(=C\c2cc(Oc3cccc4c3COCC4)c(O)cc2Br)C1=O [ExB27]
9 | 500 to 10000 nM | COc1cc(/C=C2\SC(=O)N(C)C2=O)c(C#N)cc1O [Ex205]
10 | 500 to 10000 nM | CN1C(=O)S/C(=C\c2cc(OCc3cccc4cnccc34)c(O)cc2Br)C1=O [Ex173]
11 | ≤ 500 nM | CN1C(=O)S/C(=C\c2cc(OCCc3cnc(N)nc3N)c(O)c(F)c2Br)C1=O [ExB32]
12 | ≥ 10000 nM | CC/N=C1/S/C(=C\c2cc(OC)c(O)cc2Br)C(=O)N1C [ExB23]
13 | ≥ 10000 nM | COc1cc(/C=c2\sc3ncc(C)n3c2=O)c(Br)cc1O [Ex17]
14 | 500 to 10000 nM | CN1C(=O)S/C(=C\c2cc(OCC3CCN(C(=O)c4cccnc4)CC3)c(O)cc2Br)C1=O [Ex129]
15 | ≤ 500 nM | CN1C(=O)S/C(=C\c2cc(OCc3cnc(N)nc3C(F)(F)F)c(O)cc2Br)C1=O [Ex172]
16 | 500 to 10000 nM | CN1C(=O)S/C(=C\c2cc(OCc3ccnc(N)c3)c(O)cc2Br)C1=O [Ex133]
17 | 500 to 10000 nM | CN1C(=O)S/C(=C\c2cc(OCc3cnc(S)nc3)c(O)cc2Br)C1=O [Ex219]
18 | 500 to 10000 nM | CC(Oc1cc(/C=C2\SC(=O)N(C)C2=O)c(Br)cc1O)c1cnc(NCCO)nc1 (stereo not shown) [Ex181]
19 | ≤ 500 nM | CN1C(=O)S/C(=C\c2cc(C(F)(F)F)c(O)cc2Br)C1=O [ExB16]
20 | 500 to 10000 nM | CN1CCC(COc2cc(/C=C3\SC(=O)N(C)C3=O)c(Br)cc2O)CC1 [Ex126]
21 | ≤ 500 nM | O=C1/C(=C/c2cc(OCc3cnc(NCc4cccnc4)nc3)c(O)cc2Br)Sc2ncccc21 [Ex199]
22 | ≥ 10000 nM | CN1C(=O)S/C(=C\c2cc(OCc3cncc(NC(=O)c4ccncc4)c3)c(O)cc2Br)C1=O [Ex225]
23 | ≥ 10000 nM | O=C1NC(=O)/C(=C/c2cnccn2)S1 [Ex7]

Row | IC50 | Structure (SMILES)
24 | 500 to 10000 nM | COc1cc(/C=C2\SC(=O)N(C)C2=O)c(Br)cc1OCc1ccncc1 [Ex203]
25 | ≥ 10000 nM | O=C1NC(=O)/C(=C/c2ccnnc2)N1 [Ex15]
26 | ≤ 500 nM | COc1cc(/C=C2\Sc3cnccc3C2=O)c(Br)cc1O [Ex49]
27 | ≥ 10000 nM | COc1cc(/C=C2\SC(=O)N(C)C2=O)c(F)cc1O [Ex29]
28 | ≥ 10000 nM | O=C1NC(=O)/C(=C/c2ccncc2C(F)(F)F)S1 [Ex4]
29 | ≥ 10000 nM | COc1cc(/C(Br)=C2\SC(=O)N(C)C2=O)c(Br)cc1O [Ex20]
30 | ≤ 500 nM | C/C(=C1/SC(=O)NC1=O)c1ccncc1 [Ex12]
31 | 500 to 10000 nM | CN1C(=O)S/C(=C\c2cc(OCc3cnc(O)nc3)c(O)cc2Br)C1=O [Ex217]
32 | ≤ 500 nM | O=C1/C(=C/c2cc3nn[nH]c3cc2Br)Sc2ncccc21 [Ex78]
33 | 500 to 10000 nM | CC(=O)Nc1ncc(S(=O)(=O)Nc2cc(Br)c(/C=C3\SC(=O)N(C)C3=O)cc2OCc2ccccc2)s1 [Ex62]
34 | ≤ 500 nM | Cc1ncc(COc2cc(/C=C3\SC(=O)N(C)C3=O)c(Br)cc2O)cn1 [Ex142]
35 | ≤ 500 nM | CN1C(=O)S/C(=C\c2cc(OCc3cnc(NC(=O)c4ccncc4)nc3)c(O)c(F)c2Br)C1=O [Ex191]
36 | ≤ 500 nM | CC(Oc1cc(/C=C2\SC(=O)N(C)C2=O)c(Br)c(F)c1O)C(O)c1cncnc1N (stereo not shown) [ExB37]
37 | 500 to 10000 nM | CN1C(=O)S/C(=C\c2cc(Oc3ccc([N+](=O)[O-])nc3)c(O)cc2Br)C1=O [Ex102]
38 | ≤ 500 nM | CN1C(=O)S/C(=C\c2cc(OCc3cncnc3O)c(O)cc2Br)C1=O [Ex218]
39 | 500 to 10000 nM | CSc1ncc(COc2cc(/C=C3\SC(=O)N(C)C3=O)c(Br)cc2O)c(Cl)n1 [Ex98]
40 | 500 to 10000 nM | CN1C(=O)S/C(=C\c2cc(OCc3cnc(S(C)(=O)=O)nc3Cl)c(O)cc2Br)C1=O [Ex221]
41 | 500 to 10000 nM | Cc1nc([S+](C)[O-])nc(C)c1COc1cc(/C=C2\SC(=O)N(C)C2=O)c(Br)cc1O (stereo not shown) [Ex215]
42 | ≥ 10000 nM | C/N=C1/S/C(=C\c2cc(OC)c(O)cc2Br)C(=O)N1C [ExB22]
43 | 500 to 10000 nM | COc1cc(/C=c2\sc3n(c2=O)CCCN=3)c(Br)cc1O [Ex42]
44 | 500 to 10000 nM | COc1cc(/C=C2\SC(=O)N(C)C2=O)c(Br)cc1Oc1nncs1 [Ex201]
45 | 500 to 10000 nM | COc1nc(N)ncc1COc1cc(/C=C2\SC(=O)N(C)C2=O)c(Br)cc1O [Ex222]
46 | ≤ 500 nM | COc1cc(/C=C2\Sc3ncccc3C2=O)c(I)cc1O [Ex77]

Row | IC50 | Structure (SMILES)
47 | ≥ 10000 nM | CN1C(=O)S/C(=C\c2cc(OCc3cn(-c4ccccc4)nn3)c(O)cc2Br)C1=O [Ex232]
48 | 500 to 10000 nM | Cc1nc(N)nc(C)c1COc1cc(/C=C2\SC(=O)N(C)C2=O)c(Br)cc1O [Ex223]
49 | 500 to 10000 nM | CN1C(=O)S/C(=C\c2cc(OCc3ccc(=O)[nH]c3)c(O)cc2Br)C1=O [Ex125]
50 | 500 to 10000 nM | CC(Oc1cc(/C=C2\SC(=O)N(C)C2=O)c(Br)c(F)c1Oc1cnc(N)s1)c1cnc(N)nc1 (stereo not shown) [ExB10]
51 | 500 to 10000 nM | CN1C(=O)S/C(=C\c2cc3c(-c4ccc(N)cc4)c[nH]c3cc2Br)C1=O [ExB14]
52 | 500 to 10000 nM | COc1cc(/C=c2\sc3n(c2=O)CCN=3)c(Br)cc1O [Ex40]
53 | 500 to 10000 nM | COc1cc(/C=C2\SC(=O)N(C)C2=O)c(Br)cc1Oc1cnc(NCc2ccncc2)s1 [Ex206]
54 | 500 to 10000 nM | CN1C(=O)S/C(=C\c2cc(OCc3cncc(NC(=O)c4cccnc4)c3)c(O)cc2Br)C1=O [Ex224]
55 | 500 to 10000 nM | CN1C(=O)S/C(=C\c2cc(OCc3cnc(-c4ccccn4)nc3)c(O)cc2Br)C1=O [Ex97]
56 | 500 to 10000 nM | COc1cc(/C=C2\SC(=O)N(C)C2=O)c(Br)cc1NS(=O)(=O)C(F)(F)F [Ex60]
57 | 500 to 10000 nM | CN1C(=O)S/C(=C\c2cc(OCc3cnc(N)nc3C3CC3)c(O)c(F)c2Br)C1=O [Ex109]
58 | 500 to 10000 nM | COc1cc(/C=C2\SC(=O)N(C)C2=O)c(Br)cc1Oc1ccncc1 [Ex202]
59 | ≤ 500 nM | Cc1nc(N)ncc1COc1cc(/C=C2\Sc3ncccc3C2=O)c(Br)c(F)c1O [ExA8]
60 | ≤ 500 nM | CN1C(=O)S/C(=C\c2cc(OCc3ccc(NC(=O)c4ccncc4)nc3)c(O)cc2Br)C1=O [Ex54]
61 | 500 to 10000 nM | Cc1nc2c(Oc3cc(/C=C4\SC(=O)N(C)C4=O)c(Br)cc3O)cccc2o1 [ExB13]
62 | 500 to 10000 nM | COc1cc(/C=C2\SC(=O)N(C)C2=O)c(Br)cc1Oc1ccnc2ccccc12 [Ex204]
63 | 500 to 10000 nM | CSc1ccc(CCc2cc(/C=C3\SC(=O)N(C)C3=O)c(Br)cc2O)cc1 [ExB15]
64 | ≥ 10000 nM | CC(=O)c1cc(N)ccc1Oc1cc(/C=C2\SC(=O)N(C)C2=O)c(Br)c(F)c1O [ExB7]
65 | ≤ 500 nM | CSc1nc([S+](C)[O-])ncc1COc1cc(/C=C2\Sc3ncccc3C2=O)c(Br)c(F)c1O (stereo not shown) [ExA16]
66 | ≥ 10000 nM | CN1C(=O)S/C(=C\c2cc3nn[nH]c3cc2Br)C1=O [Ex36]
67 | ≤ 500 nM | CN1C(=O)S/C(=C\c2cc(OCc3cnc(Nc4ccncc4)nc3)c(O)cc2Br)C1=O [Ex160]
